Test results reported in ChEMBL document CHEMBL2439993, “Cynaropicrin targets the trypanothione redox system in Trypanosoma brucei” (Bioorg Med Chem, 2013).
Active and inactive are the calls of the source. No cut-off for these calls is given here.

What was measured:
[1] = tested on: Trypanosoma brucei rhodesiense; test: Inhibition of ornithine decarboxylase in Trypanosoma brucei rhodesiense STIB900 assessed as intracellular ornithine level at 50 uM after 20 mins (reference value: 4 +/- 1 uM); type: cell-based
[2] = Induction of GS-CYN monoadduct formation by HPLC-MS analysis; type: physicochemical
[3] = tested on: Trypanosoma brucei rhodesiense; test: Induction of CYN-thiol adduct formation in Trypanosoma brucei rhodesiense assessed as extracellular CYN level at 50 uM after 30 mins by UHPLC-MS/MS analysis; type: organism-based; settings: in vivo, 0.5 h
[4] = Induction of T(SH)2-CYN adduct formation by HPLC-MS analysis; type: physicochemical
[5] = tested on: Trypanosoma brucei rhodesiense; test: Induction of CYN-thiol adduct formation in Trypanosoma brucei rhodesiense assessed as extracellular CYN level at 50 uM after 40 mins by UHPLC-MS/MS analysis; type: organism-based; settings: in vivo
[6] = tested on: Trypanosoma brucei rhodesiense; test: Reduction of GSH level in Trypanosoma brucei rhodesiense at 50 uM after 40 mins by UHPLC-MS/MS analysis; type: functional, organism-based
[7] = tested on: Trypanosoma cruzi; test: Inhibition of trypanothione reductase in Trypanosoma cruzi using T(S)2 as substrate at 100 to 200 uM after 240 mins by spectrophotometry in presence of NADPH
[8] = tested on: Trypanosoma brucei rhodesiense; test: Reduction of T(SH)2 level in Trypanosoma brucei rhodesiense at 50 uM after 40 mins by UHPLC-MS/MS analysis; type: functional, organism-based
[9] = tested on: Trypanosoma brucei rhodesiense; test: Induction of CYN-thiol adduct formation in Trypanosoma brucei rhodesiense assessed as extracellular CYN level at 50 uM after 5 mins by UHPLC-MS/MS analysis; type: organism-based; settings: in vivo
[10] = tested on: Trypanosoma brucei; test: Inhibition of trypanothione synthatase in Trypanosoma brucei using GSH as substrate at 200 uM
[11] = tested on: Trypanosoma brucei; test: Antitrypanosomal activity against Trypanosoma brucei assessed as intermediate phenotype at 50 uM after 5 to 10 mins by Giemsa staining-based light microscopy; type: functional, organism-based
[12] = tested on: Trypanosoma brucei rhodesiense; test: Induction of CYN-thiol adduct formation in Trypanosoma brucei rhodesiense assessed as T(S-CYN)2 bisadduct level at 50 uM after 5 mins by UHPLC-MS/MS analysis; type: organism-based; settings: in vivo
[13] = tested on: Trypanosoma brucei rhodesiense; test: Induction of CYN-thiol adduct formation in Trypanosoma brucei rhodesiense assessed as intracellular CYN level at 50 uM after 5 mins by UHPLC-MS/MS analysis; type: organism-based; settings: in vivo
[14] = tested on: Trypanosoma brucei; test: Irreversible inhibition of trypanothione synthatase in Trypanosoma brucei using GSH as substrate at 200 uM after 240 mins
[15] = tested on: Trypanosoma brucei; test: Antitrypanosomal activity against Trypanosoma brucei assessed as stumpy phenotype at 50 uM after 40 mins by Giemsa staining-based light microscopy; type: functional, organism-based
[16] = tested on: Trypanosoma brucei rhodesiense; test: Induction of CYN-thiol adduct formation in Trypanosoma brucei rhodesiense assessed as extracellular CYN level at 50 uM after 10 mins by UHPLC-MS/MS analysis; type: organism-based; settings: in vivo
[17] = tested on: Trypanosoma brucei rhodesiense; test: Induction of CYN-thiol adduct formation in Trypanosoma brucei rhodesiense assessed as GS-CYN monoadduct level at 50 uM after 5 mins by UHPLC-MS/MS analysis; type: organism-based; settings: in vivo
[18] = tested on: Trypanosoma brucei rhodesiense; test: Induction of CYN-thiol adduct formation in Trypanosoma brucei rhodesiense assessed as extracellular CYN level at 50 uM after 20 mins by UHPLC-MS/MS analysis; type: organism-based; settings: in vivo

SMILES	INH [1]	Activity [2]	Activity [3]	Activity [4]	Activity [5]	Activity [6]	inhibition [7]	Activity [8]	Activity [9]	inhibition [10]	Activity [11]	Activity [12]	Activity [13]	inhibition [14]	Activity [15]	Activity [16]	Activity [17]	Activity [18]
NCCCC(N)(C(=O)O)C(F)F (centres undefined)	48 µM	–	–	–	–	–	–	–	–	–	–	–	–	–	–	–	–	–
C=C(CO)C(=O)O[C@H]1CC(=C)[C@@H]2C[C@H](O)C(=C)[C@@H]2[C@H]2OC(=O)C(=C)[C@@H]21 [CYNAROPICRIN]	50 µM	Active	33.3 µM	Active	37.1 µM	Active	inactive	Active	34.9 µM	inactive	Active	49 µM	23 µM	51%	Active	39.6 µM	42 µM	35.8 µM
